The source of these data is US20210198277A1, “AMINE-SUBSTITUTED ARYL OR HETEROARYL COMPOUNDS” (Epizyme, Inc., priority 2016, published 2021).

Molecules are shown by their SMILES. Bounds are passed on as bounds.

This experiment concerns the target T1, human EHMT2 913-1193 (Homo sapiens, UniProt Q96KQ7).
T1 construct: recombinant purified human EHMT2 913-1193, Viva; purchased Viva
T1 sequence (Q96KQ7 913-1193): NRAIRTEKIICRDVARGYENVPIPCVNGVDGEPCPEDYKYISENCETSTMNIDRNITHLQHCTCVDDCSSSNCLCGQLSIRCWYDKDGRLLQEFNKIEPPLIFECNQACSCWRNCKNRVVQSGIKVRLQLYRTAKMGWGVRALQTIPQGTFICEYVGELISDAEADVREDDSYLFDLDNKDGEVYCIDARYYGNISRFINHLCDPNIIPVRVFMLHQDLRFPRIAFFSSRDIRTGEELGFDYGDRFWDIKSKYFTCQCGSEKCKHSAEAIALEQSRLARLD
Kind of experiment: EHMT2 enzyme assay on histone peptide substrate (EHMT2 PEP). To be noted: Table III; read-out: EHMT2 PEP (IC50 μM). Type of experiment: biochemical. The method, boiled down:
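Compounds were tested as 3-fold dilutions, 10 points from a 50 μM final top (2% DMSO), after 30-min preincubation with 0.031 nM enzyme in Bicine buffer pH 7.5. Transfer of ^3H-methyl from ^3H-SAM to biotinylated histone peptide ran 60 min at room temperature and was detected by streptavidin Flashplate scintillation.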

For `CNc1cc(C2CC2)nc(Nc2ccc(OC)c(OCCCN3CCCC3)c2)n1` [Compound 320, 6-cyclopropyl-N^2-(4-methoxy-3-(3-(pyrrolidin-1-yl)propoxy)phenyl)-N^4-methylpyrimidine-2,4-diamine], the IC50 was less than 0.1 µM. The figure for `CNc1cc(C)nc(Nc2ccc(OC)c(OCC3CCN(CC4CC4)CC3)c2)n1` [Compound 436, N^2-(3-((1-(cyclopropylmethyl)piperidin-4-yl)methoxy)-4-methoxyphenyl)-N^4,6-dimethylpyrimidine-2,4-diamine] is 1 to 10 µM. Regarding `CNc1cc(C)nc(Nc2cc(OCCCN3CCCC3)c(OC)cn2)n1` [Compound 303, N^2-(5-methoxy-4-(3-(pyrrolidin-1-yl)propoxy)pyridin-2-yl)-N^4,6-dimethylpyrimidine-2,4-diamine], the IC50 was less than 0.1 µM. The figure for `CCOc1ccc(Nc2nccc(NC)n2)cc1OCC1CCN(C)C1` (centres unmarked) [Compound 431] is more than 10 µM. The figure for `CNc1cc(C)nc(Nc2cc(OCCCN3CCCC3)c(OC)cc2F)n1` [Compound 302, N^2-(2-fluoro-4-methoxy-5-(3-(pyrrolidin-1-yl)propoxy)phenyl)-N^4,6-dimethylpyrimidine-2,4-diamine] is 1 to 10 µM. The value for `COc1cnc(Nc2nc(C)cc3[nH]ccc23)cc1OCCCN1CCCC1` [Compound 310] was 0.1 to 1 µM. For `CNc1cc(C)nc(Nc2ccc(OC)c(OCC3CCCO3)c2)n1` (centres unmarked) [Compound 452, N^2-(4-methoxy-3-((tetrahydrofuran-2-yl)methoxy)phenyl)-N^4,6-dimethylpyrimidine-2,4-diamine], the IC50 is more than 10 µM. The value for `CNc1ccnc(Nc2ccc(OC)c(OC[C@H]3CN(C)C[C@@H]3C)c2)n1` (single isomer, unassigned) [Compound 439] was 0.1 to 1 µM. The value for `CNc1cc(COC)nc(Nc2ccc(OC)c(OCCCN3CCCC3)c2)n1` [Compound 441, N^2-(4-methoxy-3-(3-(pyrrolidin-1-yl)propoxy)phenyl)-6-(methoxymethyl)-N^4-methylpyrimidine-2,4-diamine] was 0.1 to 1 µM; that for `CNc1cc(C)nc(Nc2cc(F)c(OC)c(OCCCN3CCCC3)c2)n1` [Compound 301, N2-(3-fluoro-4-methoxy-5-(3-(pyrrolidin-1-yl)propoxy)phenyl)-N4,6-dimethylpyrimidine-2,4-diamine] was more than 10 µM; that for `CNc1ccnc(Nc2ccc(OC)c(OCCCN3CCC4(COC4)C3)c2)n1` [Compound 284] was more than 10 µM. The value for `CNc1cc(C)nc(Nc2ccc(OC)c(OC3CCN(CC4CC4)CC3)c2)n1` [Compound 443] was more than 10 µM; that for `CNc1ccnc(Nc2cccc(N3CC(N)CC3=O)c2)n1` (centres unmarked) [Compound 296] was more than 10 µM; that for `CNc1cc(Nc2ccc(OC)c(OCCCN3CCCC3)c2)cc(C(F)(F)F)n1` [Compound 273] was more than 10 µM. Consider `CNc1cc(Nc2cc(OCCCN3CCCC3)c(OC)cn2)cc(C)n1` [Compound 308, N^4-(5-methoxy-4-(3-(pyrrolidin-1-yl)propoxy)pyridin-2-yl)-N^2,6-dimethylpyridine-2,4-diamine], for which the IC50 is 0.1 to 1 µM. With `CNc1ccnc(Nc2cc(OCCCN3CCCC3)c(OC)cn2)c1` [Compound 305, N^2-(5-methoxy-4-(3-(pyrrolidin-1-yl)propoxy)pyridin-2-yl)-N^4-methylpyridine-2,4-diamine], the concentration for half-maximal inhibition (IC50) is less than 0.1 µM. The figure for `CNc1cc(C)nc(Nc2ccc(OC)c(OCC3CN(C)C3)c2)n1` [Compound 442, N^2-(4-methoxy-3-((1-methylazetidin-3-yl)methoxy)phenyl)-N^4,6-dimethylpyrimidine-2,4-diamine] is less than 0.1 µM; for `CNc1ccnc(Nc2ccc(OC)c(OCCCN3CCCC3C)c2)n1` (centres unmarked) [Compound 290, N^2-(4-methoxy-3-(3-(2-methylpyrrolidin-1-yl)propoxy)phenyl)-N^4-methylpyrimidine-2,4-diamine] it is 0.1 to 1 µM; for `CNc1cc(C)nc(Nc2ccc(OC)c(O[C@H]3C[C@@H](N(C)C)C3)c2)n1` (single isomer, unassigned) [Compound 317, N^2-(3-((1s,3s)-3-(dimethylamino)cyclobutoxy)-4-methoxyphenyl)-N^4,6-dimethylpyrimidine-2,4-diamine] it is 1 to 10 µM. The figure for `CNc1ccnc(Nc2ccc(OC)c(OCCCN3CCC(OC)C3)c2)n1` (centres unmarked) [Compound 283, N^2-(4-methoxy-3-(3-(3-methoxypyrrolidin-1-yl)propoxy)phenyl)-N^4-methylpyrimidine-2,4-diamine] is less than 0.1 µM; for `CNc1ccnc(Nc2cccc(OCC(F)CN3CCCC3)c2)n1` (centres unmarked) [Compound 276, N^2-(3-(2-fluoro-3-(pyrrolidin-1-yl)propoxy)phenyl)-N^4-methylpyrimidine-2,4-diamine] it is more than 10 µM. Take `CNc1cc(C)nc(Nc2ccc(OC)c(OCC3CCN(C4COC4)C3)c2)n1` (centres unmarked) [Compound 449, N^2-(4-methoxy-3-((1-(oxetan-3-yl)pyrrolidin-3-yl)methoxy)phenyl)-N^4,6-dimethylpyrimidine-2,4-diamine]: the concentration for half-maximal inhibition (IC50) was in the range of 0.1 to 1 µM. For the molecule `CCc1nc(Nc2ccc(OC)c(OCCCN3CCCC3)c2)nc(NC)c1F` [Compound 319, 6-ethyl-5-fluoro-N^2-(4-methoxy-3-(3-(pyrrolidin-1-yl)propoxy)phenyl)-N^4-methylpyrimidine-2,4-diamine], the IC50 was in the range of 0.1 to 1 µM. The value for `COc1ccc(Nc2nc(C)cc(O)n2)cc1OCCCN1CCCC1` [Compound 447, 2-((4-methoxy-3-(3-(pyrrolidin-1-yl)propoxy)phenyl)amino)-6-methylpyrimidin-4-ol] was more than 10 µM; that for `CNc1cc(Nc2cc(OCCCN3CCCC3)c(OC)cn2)nc(C)c1F` [Compound 309, 5-fluoro-N^2-(5-methoxy-4-(3-(pyrrolidin-1-yl)propoxy)pyridin-2-yl)-N^4,6-dimethylpyridine-2,4-diamine] was less than 0.1 µM; that for `CNc1cc(CC(F)(F)F)nc(Nc2ccc(OC)c(OCCCN3CCCC3)c2)n1` [Compound 428, N^2-(4-methoxy-3-(3-(pyrrolidin-1-yl)propoxy)phenyl)-N^4-methyl-6-(2,2,2-trifluoroethyl)pyrimidine-2,4-diamine] was 1 to 10 µM. The figure for `CNc1ccnc(Nc2ccc(OC)c(OCCCN3CCC(C(F)(F)F)C3)c2)n1` (centres unmarked) [Compound 285, N^2-(4-methoxy-3-(3-(3-(trifluoromethyl)pyrrolidin-1-yl)propoxy)phenyl)-N^4-methylpyrimidine-2,4-diamine] is more than 10 µM. `CNc1ccnc(Nc2ccc(OC)c(OC[C@H](O)CN3CCCC3)c2)n1` [Compound 299, (R)-1-(2-methoxy-5-((4-(methylamino)pyrimidin-2-yl)amino)phenoxy)-3-(pyrrolidin-1-yl)propan-2-ol]: the half-inhibitory concentration (IC50) is less than 0.1 µM. The value for `CNc1ccnc(Nc2ccc(OC)c(OC[C@@H](O)CN3CCCC3)c2)n1` [Compound 300, (S)-1-(2-methoxy-5-((4-(methylamino)pyrimidin-2-yl)amino)phenoxy)-3-(pyrrolidin-1-yl)propan-2-ol] was 0.1 to 1 µM; that for `CNc1cc(Nc2cccc(COCCN3CCCC3)n2)ccn1` [Compound 268, N^2-methyl-N^4-(6-((2-(pyrrolidin-1-yl)ethoxy)methyl)pyridin-2-yl)pyridine-2,4-diamine] was more than 10 µM; that for `CNc1ccnc(Nc2cccc(N3CCC(N(C)C)C3=O)c2)n1` (centres unmarked) [Compound 275] was more than 10 µM. The figure for `CNc1cc(Nc2ccc(OC)c(OCCCN3CCCC3)c2)ncc1F` [Compound 272, 5-fluoro-N^2-(4-methoxy-3-(3-(pyrrolidin-1-yl)propoxy)phenyl)-N^4-methylpyridine-2,4-diamine] is 0.1 to 1 µM; for `COc1ccc(Nc2cc(C)nc(O)n2)cc1OCCCN1CCCC1` [Compound 448, 4-((4-methoxy-3-(3-(pyrrolidin-1-yl)propoxy)phenyl)amino)-6-methylpyrimidin-2-ol] it is more than 10 µM; for `CNc1ccnc(Nc2cccc(N3CCC(N)C3=O)c2)n1` (centres unmarked) [Compound 274] it is 1 to 10 µM. The value for `CNc1ccnc(Nc2ccc(OC)c(OCCC3CCCN3C)c2)n1` (centres unmarked) [Compound 288, N^2-(4-methoxy-3-(2-(1-methylpyrrolidin-2-yl)ethoxy)phenyl)-N^4-methylpyrimidine-2,4-diamine] was 0.1 to 1 µM. For `CNc1ccnc(Nc2ccc(OC)c(OCCCN3CCC(S(C)(=O)=O)C3)c2)n1` (centres unmarked) [Compound 282], the half-maximal inhibitory concentration (IC50) is more than 10 µM. Consider `CNc1cc(C)nc(Nc2ccc(OC)c(OCC3CCN(C)CC3)c2)n1` [Compound 435, N^2-(4-methoxy-3-((1-methylpiperidin-4-yl)methoxy)phenyl)-N^4,6-dimethylpyrimidine-2,4-diamine], for which the IC50 is 1 to 10 µM. The figure for `CCOc1ccc(Nc2nccc(NC)n2)cc1OCCCN1CCCC1` [Compound 430, N^2-(4-ethoxy-3-(3-(pyrrolidin-1-yl)propoxy)phenyl)-N^4-methylpyrimidine-2,4-diamine] is more than 10 µM; for `CNc1ccnc(N[C@@H]2CCC[C@H](OCCCN3CCCC3)C2)n1` [Compound 427] it is more than 10 µM; for `CNc1cc(C)nc(Nc2ccc(C3CC3)c(OCCCN3CCCC3)c2)n1` [Compound 313, N^2-(4-cyclopropyl-3-(3-(pyrrolidin-1-yl)propoxy)phenyl)-N^4,6-dimethylpyrimidine-2,4-diamine] it is 0.1 to 1 µM. The value for `CNc1ccnc(Nc2ccc(OC)c(OCCCN3CC(C)C3)c2)n1` [Compound 423, N^2-(4-methoxy-3-(3-(3-methylazetidin-1-yl)propoxy)phenyl)-N^4-methylpyrimidine-2,4-diamine] was 0.1 to 1 µM.

For orientation: IC50 means the concentration that inhibits the measured activity by half.
